Results as given in US20240423957A1, “TOPICAL ANTI-INFLAMMATORY AND ANALGESIC COMPOSITIONS AND METHODS OF USE” (INSIGNIA PHARMACEUTICALS, LLC, priority 2023, published 2024).
Entries after “also recorded” stand apart in the source; their conditions may differ.

Key:
[1] = tested on: THP-1 macrophage-like cells; experiment: IL-1beta release (ELISA) from PMA-differentiated THP-1 macrophage-like cells; format: cell-based, human; conditions: 0.2 to 6 millimolar; activation with 100 ng/mL LPS 24 hours then 10 millimolar ATP 1 hour (FIG. 4)
Procedure: (§1) The human monocyte cell line THP-1 was differentiated into macrophage-like cells with PMA for 72 hours. […] Cells were then activated with 100 nanograms per milliliter LPS for 24 hours followed by an additional hour with 10 millimolar adenosine triphosphate (ATP). IL-1beta release was quantified by enzyme-linked immunosorbent assay (ELISA).

[2] = cited from earlier work
[3] = tested on: Human osteoarthritic chondrocytes; experiment: Real-time RT-PCR of Col2a1 mRNA in human osteoarthritic chondrocytes cultured 20 days; format: cell-based; conditions: delta-delta CT against GAPDH, actin, 18S rRNA
Procedure: The chondrocytes were layered on top of a hyaluronic acid hydrogel ([…]®, Sanofi-Aventis, United States) to promote a three-dimensional culture environment. Following 20 days, hyaluronidase was added to release the cells from the hydrogel, the cells were collected, and total RNA was isolated.

THP-1 cells = experiment: Viability of PMA-differentiated THP-1 cells (optical density at 490 nanometers); format: cell-based, human
Procedure: as §1
Cell viability was also assessed by optical density at 490 nanometers (FIGS. 5A & 5B).

[4] = tested on: Human osteoarthritic chondrocytes; experiment: Immunostaining of human osteoarthritic chondrocytes cultured 24 days on hyaluronic acid hydrogel (SOX9, Col2a1, ACAN); format: cell-based
From the text: The chondrocytes were layered on top of a hyaluronic acid hydrogel ([…]®, Sanofi-Aventis, United States) to promote a three-dimensional culture environment. Following 24 days, the cells were fixed with paraformaldehyde and immunostained for SOX9, Col2a1, and ACAN.

[5] = tested on: human chondrocyte spheroids; experiment: Morphology of human chondrocyte spheroids in hyaluronic acid hydrogel; format: cell-based
[6] = high-density monolayers, ethanol vehicle, 0.1, 0.5 and 1 millimolar, 24 days

## CCCCCCCCCC(=O)O [decanoic acid]
[1]
  IL-1beta release: dose-dependent inhibition of IL-1beta release; also recorded: dose-dependent inhibition of IL-1beta concentrations
[2]
  pKa: about 4.9
[3]; 0.5 millimolar
  increase in Col2a1 mRNA: 1 fold
[3]; 1 millimolar
  increase in Col2a1 mRNA: 7 fold
THP-1 cells; 6 millimolar (FIGS. 5A & 5B)
  cell viability: unfavorable effect on viability; also recorded: significant decrease in viability
THP-1 cells; concentrations below 6 millimolar (from 0.19 millimolar), relative to vehicle controls
  cell viability: no lower concentration of decanoic acid reduced cell viability
[4]; 1 millimolar
  ACAN immunostaining of chondrocyte spheroids: strong ACAN immunostaining
[4]; 1 millimolar, 24 days
  SOX9 staining of spheroids: stained strongly for SOX9
  spheroid development or condensation: enhanced spheroid development or condensation
[4]; high-density monolayers
  concentration with peak Col2a1 staining: 0.5 millimolar
[4]; [6]
  nuclear staining for SOX9: enhanced nuclear staining for SOX9 in a dose-dependent manner
  punctate staining for ACAN: dose-dependent punctate staining for ACAN
  punctate staining for Col2a1: dose-dependent punctate staining for Col2a1
[4]; low-density monolayers
  concentration with strongest ACAN staining: 1 millimolar
[4]; low-density monolayers, 1 millimolar
  punctate immunostaining for Col2a1: strong punctate immunostaining for Col2a1
[5]; after 4 days of culture (FIGS. 2A & 2B)
  spheroid morphology: promoted interconnected networks of spheroids; also recorded: generated interconnected networks that suspended the spheroids
[5]; after 20 days of culture (FIGS. 3A & 3B)
  spheroid morphology: large spheroid development or condensation
